In ChEMBL document CHEMBL5154874, “Discovery of novel dual RAGE/SERT inhibitors for the potential treatment of the comorbidity of Alzheimer's disease and depression” (Eur J Med Chem, 2022):
pIC50: −log10 of the molar value. The source made the active and inactive calls. The rule behind the calls is not given here.

Legend:
[1] = target: Advanced glycosylation end product-specific receptor (Homo sapiens, UniProt Q15109); test: Inhibition of biotinylated human RAGE/amyloid beta interaction incubated for 120 mins by ELISA assay
Advanced glycosylation end product-specific receptor, sequence (Q15109 whole entry): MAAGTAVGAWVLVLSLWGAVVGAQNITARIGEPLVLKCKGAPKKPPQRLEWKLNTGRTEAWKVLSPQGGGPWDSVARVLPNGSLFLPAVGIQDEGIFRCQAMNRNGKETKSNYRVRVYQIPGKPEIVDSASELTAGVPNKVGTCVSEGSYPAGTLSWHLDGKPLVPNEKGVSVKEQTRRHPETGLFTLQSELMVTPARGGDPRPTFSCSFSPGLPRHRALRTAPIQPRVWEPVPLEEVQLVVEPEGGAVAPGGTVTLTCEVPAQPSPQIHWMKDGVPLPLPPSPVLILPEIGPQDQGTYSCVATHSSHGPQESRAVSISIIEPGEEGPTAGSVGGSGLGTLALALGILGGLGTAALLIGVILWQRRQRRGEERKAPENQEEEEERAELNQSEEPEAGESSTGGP

SH-SY5Y [2] = test: Cytotoxicity against human SH-SY5Y cells assessed as reduction in cell viability at 10 to 20 uM incubated for 24 hrs by MTT assay; type: toxicity, cell-based; conditions: dose 10-20 µM
SH-SY5Y [3] = test: Cytotoxicity against human SH-SY5Y cells assessed as cell death at 5 uM incubated for 24 hrs by MTT assay; type: toxicity, cell-based
[4] = target: Sodium-dependent serotonin transporter (Homo sapiens, UniProt P31645)
Sodium-dependent serotonin transporter, sequence (P31645 whole entry): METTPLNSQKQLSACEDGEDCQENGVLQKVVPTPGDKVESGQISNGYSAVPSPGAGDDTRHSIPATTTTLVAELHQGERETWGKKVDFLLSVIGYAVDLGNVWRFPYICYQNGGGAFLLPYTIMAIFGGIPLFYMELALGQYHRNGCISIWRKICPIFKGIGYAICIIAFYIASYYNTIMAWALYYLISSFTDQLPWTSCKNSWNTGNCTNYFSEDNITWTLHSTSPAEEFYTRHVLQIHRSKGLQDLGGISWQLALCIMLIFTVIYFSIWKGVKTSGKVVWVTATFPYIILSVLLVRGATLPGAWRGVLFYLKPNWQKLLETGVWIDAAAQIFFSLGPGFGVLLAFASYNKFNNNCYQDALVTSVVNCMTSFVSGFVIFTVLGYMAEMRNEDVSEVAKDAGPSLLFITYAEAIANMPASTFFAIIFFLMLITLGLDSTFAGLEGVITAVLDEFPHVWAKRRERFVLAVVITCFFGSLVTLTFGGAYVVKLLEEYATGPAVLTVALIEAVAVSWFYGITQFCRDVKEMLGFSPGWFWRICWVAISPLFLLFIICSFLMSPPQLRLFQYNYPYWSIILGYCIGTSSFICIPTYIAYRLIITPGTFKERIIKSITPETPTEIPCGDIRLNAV

CYP3A4 = CYP3A4 (Homo sapiens, UniProt P08684); test: Inhibition of CYP3A4 in human liver microsomes at 10 uM incubated for 10 mins in presence of NADPH by LC-MS/MS analysis relative to control; type: ADME, Microsome
CYP3A4, sequence (P08684 whole entry): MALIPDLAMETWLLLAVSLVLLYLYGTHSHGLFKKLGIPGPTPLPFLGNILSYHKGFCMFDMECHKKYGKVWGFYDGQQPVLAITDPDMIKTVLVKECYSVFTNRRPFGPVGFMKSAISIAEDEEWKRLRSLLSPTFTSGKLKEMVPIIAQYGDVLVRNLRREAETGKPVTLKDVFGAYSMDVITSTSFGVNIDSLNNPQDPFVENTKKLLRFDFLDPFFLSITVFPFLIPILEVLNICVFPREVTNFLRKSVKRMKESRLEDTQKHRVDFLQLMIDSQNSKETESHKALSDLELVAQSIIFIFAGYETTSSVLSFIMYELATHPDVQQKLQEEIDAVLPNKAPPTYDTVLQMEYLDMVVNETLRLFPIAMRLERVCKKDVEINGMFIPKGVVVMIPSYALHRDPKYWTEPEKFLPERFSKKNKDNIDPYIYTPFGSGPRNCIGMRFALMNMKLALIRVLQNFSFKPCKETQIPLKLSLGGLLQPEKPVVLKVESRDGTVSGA

CYP1A2 = target: T1, CYP1A2 (Homo sapiens, UniProt P05177); test: Inhibition of CYP1A2 in human liver microsomes at 10 uM incubated for 10 mins in presence of NADPH by LC-MS/MS analysis relative to control; type: ADME, Microsome
T1 sequence (P05177 whole entry): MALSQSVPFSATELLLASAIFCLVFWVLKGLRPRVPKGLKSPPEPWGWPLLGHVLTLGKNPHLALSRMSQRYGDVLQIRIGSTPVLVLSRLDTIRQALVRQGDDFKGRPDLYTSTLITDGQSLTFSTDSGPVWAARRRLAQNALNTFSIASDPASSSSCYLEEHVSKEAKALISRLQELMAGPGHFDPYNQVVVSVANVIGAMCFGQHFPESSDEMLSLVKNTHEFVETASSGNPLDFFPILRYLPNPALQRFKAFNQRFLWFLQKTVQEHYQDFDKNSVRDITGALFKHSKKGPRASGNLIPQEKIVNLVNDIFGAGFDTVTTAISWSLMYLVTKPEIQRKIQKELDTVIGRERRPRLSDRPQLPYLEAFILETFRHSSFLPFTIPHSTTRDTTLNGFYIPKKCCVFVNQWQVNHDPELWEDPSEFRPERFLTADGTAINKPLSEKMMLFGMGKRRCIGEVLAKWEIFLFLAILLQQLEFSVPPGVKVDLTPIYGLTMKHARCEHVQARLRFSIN

[5] = target: Voltage-gated inwardly rectifying potassium channel KCNH2 (Homo sapiens, UniProt Q12809); test: Inhibition of hERG transfected in CHO cells by manual patch-clamp assay; type: toxicity, cell-based
Voltage-gated inwardly rectifying potassium channel KCNH2, sequence (Q12809 whole entry): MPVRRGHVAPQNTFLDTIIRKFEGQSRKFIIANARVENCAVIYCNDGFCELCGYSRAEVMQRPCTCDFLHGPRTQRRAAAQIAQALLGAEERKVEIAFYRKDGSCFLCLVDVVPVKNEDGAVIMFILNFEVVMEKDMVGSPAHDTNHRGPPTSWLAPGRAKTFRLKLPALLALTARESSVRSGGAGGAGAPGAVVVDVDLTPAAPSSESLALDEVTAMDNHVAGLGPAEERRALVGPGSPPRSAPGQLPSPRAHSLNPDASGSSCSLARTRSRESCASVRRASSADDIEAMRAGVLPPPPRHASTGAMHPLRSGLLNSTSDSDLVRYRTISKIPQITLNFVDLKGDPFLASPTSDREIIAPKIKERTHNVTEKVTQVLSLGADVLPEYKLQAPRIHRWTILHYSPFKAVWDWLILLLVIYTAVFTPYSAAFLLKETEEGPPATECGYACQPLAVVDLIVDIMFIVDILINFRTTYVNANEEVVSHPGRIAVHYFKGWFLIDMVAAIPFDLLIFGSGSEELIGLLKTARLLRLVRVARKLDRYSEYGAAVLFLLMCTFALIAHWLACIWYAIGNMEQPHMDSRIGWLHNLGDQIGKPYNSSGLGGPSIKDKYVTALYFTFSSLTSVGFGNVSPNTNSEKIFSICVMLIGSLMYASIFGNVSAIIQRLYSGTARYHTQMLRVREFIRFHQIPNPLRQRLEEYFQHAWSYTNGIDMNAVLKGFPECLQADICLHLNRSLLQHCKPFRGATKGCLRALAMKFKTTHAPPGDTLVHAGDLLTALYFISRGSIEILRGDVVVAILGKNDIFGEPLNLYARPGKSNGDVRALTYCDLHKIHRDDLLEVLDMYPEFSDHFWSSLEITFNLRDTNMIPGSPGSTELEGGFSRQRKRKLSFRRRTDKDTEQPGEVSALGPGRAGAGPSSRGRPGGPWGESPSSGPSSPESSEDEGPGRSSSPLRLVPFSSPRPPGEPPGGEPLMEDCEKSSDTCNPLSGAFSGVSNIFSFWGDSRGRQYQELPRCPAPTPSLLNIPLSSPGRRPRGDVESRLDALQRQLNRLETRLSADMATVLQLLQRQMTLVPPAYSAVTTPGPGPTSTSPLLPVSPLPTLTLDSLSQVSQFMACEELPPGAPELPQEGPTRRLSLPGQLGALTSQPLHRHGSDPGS

[6] = Metabolic stability in mouse liver microsomes assessed as half life at 100 uM in presence of NADPH and measured for 5 to 60 mins by LC-MS/MS analysis; type: ADME, Microsome; conditions: time 5-60 min
CYP2C19 = CYP2C19 (Homo sapiens, UniProt P33261); test: Inhibition of CYP2C19 in human liver microsomes at 10 uM incubated for 10 mins in presence of NADPH by LC-MS/MS analysis relative to control; type: ADME, Microsome
CYP2C19, sequence (P33261 whole entry): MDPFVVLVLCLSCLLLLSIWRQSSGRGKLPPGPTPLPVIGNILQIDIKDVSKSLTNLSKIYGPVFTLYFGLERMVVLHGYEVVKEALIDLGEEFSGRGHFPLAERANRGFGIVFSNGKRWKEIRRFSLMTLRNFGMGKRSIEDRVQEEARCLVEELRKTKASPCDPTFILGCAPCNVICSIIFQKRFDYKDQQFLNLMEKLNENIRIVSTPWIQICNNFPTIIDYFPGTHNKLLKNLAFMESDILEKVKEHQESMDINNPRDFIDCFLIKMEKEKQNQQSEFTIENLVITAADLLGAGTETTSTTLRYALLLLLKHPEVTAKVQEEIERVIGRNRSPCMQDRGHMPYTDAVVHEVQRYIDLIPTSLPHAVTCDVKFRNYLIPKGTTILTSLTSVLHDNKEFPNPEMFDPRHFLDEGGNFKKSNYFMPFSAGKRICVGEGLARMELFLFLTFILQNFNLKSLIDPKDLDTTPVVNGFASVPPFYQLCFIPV

[7] = Metabolic stability in mouse liver microsomes assessed as clearance at 100 uM in presence of NADPH and measured for 5 to 60 mins by LC-MS/MS analysis; type: ADME, Microsome; conditions: time 5-60 min, read-out: CLH
CYP2C9 = CYP2C9 (Homo sapiens, UniProt P11712); test: Inhibition of CYP2C9 in human liver microsomes at 10 uM incubated for 10 mins in presence of NADPH by LC-MS/MS analysis relative to control; type: ADME, Microsome
CYP2C9, sequence (P11712 whole entry): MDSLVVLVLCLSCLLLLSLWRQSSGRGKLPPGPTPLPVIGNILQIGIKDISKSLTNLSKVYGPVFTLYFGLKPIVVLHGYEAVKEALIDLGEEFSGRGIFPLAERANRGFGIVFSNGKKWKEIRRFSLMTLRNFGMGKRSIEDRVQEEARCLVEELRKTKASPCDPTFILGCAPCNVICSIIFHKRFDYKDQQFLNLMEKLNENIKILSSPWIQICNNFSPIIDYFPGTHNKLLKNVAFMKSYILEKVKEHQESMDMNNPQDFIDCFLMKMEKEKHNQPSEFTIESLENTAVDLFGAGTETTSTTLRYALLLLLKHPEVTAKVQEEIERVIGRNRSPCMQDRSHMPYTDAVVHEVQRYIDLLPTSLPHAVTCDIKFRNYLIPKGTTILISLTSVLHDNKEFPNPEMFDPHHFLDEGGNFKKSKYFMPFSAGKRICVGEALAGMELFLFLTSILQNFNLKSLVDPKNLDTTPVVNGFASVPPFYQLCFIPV

Mus musculus [8] = test: Anti-depressant activity in ICR mouse assessed as reduction in immobility time at 30 mg/kg, po measured after 1 hr post treatment by tail suspension test; type: functional, organism-based
[9] = Toxicity in ICR mouse assessed as change in spleen to body weight ratio at 100 mg/kg, ip administered as single dose and measured after 2 weeks; type: organism-based; conditions: in vivo, 336 h
[10] = Cmax in mouse at 60 mg/kg, po measured for 0.25 to 24 hrs; type: ADME, organism-based; parameters: time 0.25-24 hrs, dose 60 mg/kg, route po; conditions: in vivo
[11] = Half life in mouse at 10 mg/kg, iv measured for 0.083 to 24 hrs; type: ADME, organism-based; conditions: in vivo, time 0.083-24 hrs
[12] = Toxicity in ICR mouse assessed as animal survival at 100 mg/kg, ip administered as single dose measured upto 2 weeks; type: organism-based; conditions: in vivo
[13] = AUC (0 to infinity) in mouse at 60 mg/kg, po measured for 0.25 to 24 hrs; type: ADME, organism-based; parameters: time lower 0.25 hrs, dose 60 mg/kg, time upper 24 hrs, route po; conditions: in vivo
[14] = Toxicity in ICR mouse assessed as change in brain to body weight ratio at 100 mg/kg, ip administered as single dose and measured after 2 weeks; type: organism-based; conditions: in vivo, 336 h
[15] = Toxicity in ICR mouse assessed as change in kidney to body weight ratio at 100 mg/kg, ip administered as single dose and measured after 2 weeks; type: organism-based; conditions: in vivo, 336 h
[16] = AUC (0 to infinity) in mouse at 10 mg/kg, iv measured for 0.083 to 24 hrs; type: ADME, organism-based; parameters: dose 10 mg/kg, time 0.083-24 hrs, route iv; conditions: in vivo
[17] = Volume of distribution at steady state in mouse at 10 mg/kg, iv measured for 0.083 to 24 hrs; type: ADME, organism-based; conditions: in vivo, time 0.083-24 hrs, read-out: Vdss
[18] = Toxicity in ICR mouse assessed as change in liver to body weight ratio at 100 mg/kg, ip administered as single dose and measured after 2 weeks; type: organism-based; conditions: in vivo, 336 h
SH-SY5Y [19] = test: Cytotoxicity against human SH-SY5Y cells assessed as effect on cell viability at 1 to 10 uM incubated for 24 hrs by MTT assay; type: toxicity, cell-based; conditions: dose 1-10 µM
[20] = Cytotoxicity against human SH-SY5Y cells assessed as cell viability at 20 uM incubated for 24 hrs by MTT assay relative to control; type: toxicity, cell-based; conditions: read-out: Activity
[21] = Half life in mouse at 60 mg/kg, po measured for 0.25 to 24 hrs; type: ADME, organism-based; conditions: in vivo, time 0.25-24 hrs
[22] = Clearance in mouse at 10 mg/kg, iv measured for 0.083 to 24 hrs; type: ADME, organism-based; conditions: in vivo, time 0.083-24 hrs
[23] = Toxicity in ICR mouse assessed as change in lungs to body weight ratio at 100 mg/kg, ip administered as single dose and measured after 2 weeks; type: organism-based; conditions: in vivo, 336 h
[24] = Cmax in mouse at 10 mg/kg, iv measured for 0.083 to 24 hrs; type: ADME, organism-based; parameters: time lower 0.083 hrs, dose 10 mg/kg, time upper 24 hrs, route iv; conditions: in vivo
Mus musculus [25] = test: Anti-depressant activity in ICR mouse assessed as reduction in immobility time at 60 mg/kg, po measured after 1 hr post treatment by tail suspension test; type: functional, organism-based
[26] = Toxicity in ICR mouse assessed as animal survival at 200 mg/kg, ip administered as single dose measured upto 2 weeks; type: organism-based; conditions: in vivo, 336 h
[27] = Toxicity in ICR mouse assessed as change in heart to body weight ratio at 100 mg/kg, ip administered as single dose and measured after 2 weeks; type: organism-based; conditions: in vivo, 336 h
[28] = Oral bioavailability in mouse at 60 mg/kg measured for 0.25 to 24 hrs; type: ADME, organism-based; conditions: in vivo, time 0.25-24 hrs
[29] = Cytotoxicity against human SH-SY5Y cells assessed as cell viability at 5 uM incubated for 24 hrs by MTT assay relative to control; type: toxicity, cell-based; conditions: read-out: Activity
[30] = Metabolic stability in mouse liver microsomes assessed as parent compound remaining in presence of NADPH and measured after 60 mins by LC-MS/MS analysis

## CCN(CC)CCOc1cccc(Nc2nc(-c3ccc(Cl)cc3)cc(-c3ccc(Cl)cc3)n2)c1
[1]
  pIC50: 4.98

## CCc1nc(C2CCN(CCCCc3c[nH]c4ccc(C#N)cc34)CC2)cn1-c1ccc(Oc2ccc(Cl)cc2)cc1
SH-SY5Y [2]
  Activity: Toxic
SH-SY5Y [3]
  Activity: Toxic

## CCCCc1nc(C2CCN(CCc3c[nH]c4ccc(C#N)cc34)CC2)cn1-c1ccc(Oc2ccc(Cl)cc2)cc1
[4]
  pIC50: < 7.00
[1]
  pIC50: < 4.70

## CCCCc1nc(C2CCN(Cc3c[nH]c4ccc(C#N)cc34)CC2)cn1-c1ccc(Oc2ccc(Cl)cc2)cc1
SH-SY5Y [2]
  Activity: Toxic
SH-SY5Y [3]
  Activity: Toxic

## CCCCc1nc(-c2ccc(OCCCN(CC)CC)cc2)cn1-c1ccc(Oc2ccc(Cl)cc2)cc1 [AZELIRAGON]
[4]
  pIC50: < 5.52
CYP3A4
  inhibition at 10 min, 10 µM: 0%
CYP1A2
  inhibition at 10 min, 10 µM: 0%
[5]
  pIC50: > 6.00
[6]
  half-life at 100 µM: 1.55 h
SH-SY5Y [3]
  Activity: Toxic
CYP2C19
  inhibition at 10 min, 10 µM: 7.9%
[7]
  microsomal CLint at 100 µM: 14.9 µL/min/mg
CYP2C9
  inhibition at 10 min, 10 µM: 3.7%

## CCCCCc1nc(C2CCN(CCCCc3cn(C)c4ccc(C#N)cc34)CC2)cn1-c1ccc(Oc2ccc(Cl)cc2)cc1
SH-SY5Y [2]
  Activity: Toxic
SH-SY5Y [3]
  Activity: Toxic

## CCCc1nc(C2CCN(CCCCc3c[nH]c4ccc(C#N)cc34)CC2)cn1-c1ccc(Oc2ccc(Cl)cc2)cc1
SH-SY5Y [2]
  Activity: Toxic
SH-SY5Y [3]
  Activity: Toxic

## CCCCc1sc(C2CCN(CCCCc3c[nH]c4ccc(C#N)cc34)CC2)nc1-c1ccc(Oc2ccc(Cl)cc2)cc1
SH-SY5Y [2]
  Activity: Toxic
SH-SY5Y [3]
  Activity: Non-Toxic

## N#Cc1ccc2[nH]cc(CCCCN3CCN(c4ccc5oc(C(N)=O)cc5c4)CC3)c2c1 [VILAZODONE]
Mus musculus [8]
  Activity: Active
CYP3A4
  inhibition at 10 min, 10 µM: 29%
CYP1A2
  inhibition at 10 min, 10 µM: 14.4%
[6]
  half-life at 100 µM: 0.468 h
CYP2C19
  inhibition at 10 min, 10 µM: 51.3%
[1]
  pIC50: < 3.70
[7]
  microsomal CLint at 100 µM: 49.3 µL/min/mg
CYP2C9
  inhibition at 10 min, 10 µM: 49.2%

## CCCCc1sc(C2CCN(CCc3c[nH]c4ccc(C#N)cc34)CC2)nc1-c1ccc(Oc2ccc(Cl)cc2)cc1
[4]
  pIC50: < 7.00
[1]
  pIC50: < 4.70

## CCCCc1sc(C2CCN(CCCCc3cn(C)c4ccc(C#N)cc34)CC2)nc1-c1ccc(Oc2ccc(Cl)cc2)cc1
[9]
  Activity: Non-Toxic
[10]
  Cmax: 4940 ng/mL
[11]
  half-life: 3.46 h
[12]
  survival at 336 h: 100%
CYP3A4
  inhibition at 10 min, 10 µM: 16.3%
[13]
  AUC(0-inf): 24700 ng·h/mL
CYP1A2
  inhibition at 10 min, 10 µM: 17.2%
[14]
  Activity: Non-Toxic
[5]
  pIC50: 5.14
[15]
  Activity: Non-Toxic
[16]
  AUC(0-inf): 23700 ng·h/mL
[17]
  Vd: 1.04 L/kg
[6]
  half-life at 100 µM: 1.31 h
[18]
  Activity: Non-Toxic
SH-SY5Y [19]
  Activity: Non-Toxic
CYP2C19
  inhibition at 10 min, 10 µM: 23.7%
[20]
  viability at 24 h, 20 µM: > 80%
[21]
  half-life: 5.55 h
[22]
  clearance: 7.09 mL/min/kg
[23]
  Activity: Non-Toxic
[24]
  Cmax: 51700 ng/mL
Mus musculus [25]
  Activity: Active
[7]
  microsomal CLint at 100 µM: 17.6 µL/min/mg
CYP2C9
  inhibition at 10 min, 10 µM: 8.6%
[26]
  Activity: Toxic
[27]
  Activity: Non-Toxic
[28]
  bioavailability: 17.1%

## N#Cc1ccc2[nH]cc(CCCCN3CCC(c4cn(-c5ccc(Oc6ccc(Cl)cc6)cc5)c(C5CCC5)n4)CC3)c2c1
SH-SY5Y [2]
  Activity: Toxic
SH-SY5Y [3]
  Activity: Toxic

## CCCCc1nc(C2CCN(CCCCc3c[nH]c4ccc(C#N)cc34)CC2)cn1-c1ccc(Oc2ccc(Cl)cc2)cc1
SH-SY5Y [2]
  Activity: Toxic
[29]
  viability at 24 h, 5 µM: 4.82%
SH-SY5Y [3]
  Activity: Toxic

## C[C@]12CC[C@H]3[C@@H](CCC4=CC(=O)CC[C@@]43C)[C@@H]1CC[C@@H]2O [TESTOSTERONE]
[30]
  remaining at 1 h: 2.2%
